Assay results taken from a melting point compilation (Tetko et al.; mined from patent text by program, amines drawn as free bases though some values may be those of a salt).
Non-standard residues stand in square brackets, D forms with d. Residues, ends and D or L forms follow the SMILES beside them. *: point of attachment. 1Nal = N[C@@H](Cc1cccc2ccccc12)C(=O)O; Leu(ol) = CC(C)C[C@H](N)CO; Cbz = O=C(OCc1ccccc1)*

melting point | SMILES
103 to 106 °C | CN(C)CCOc1cc(NS(=O)(=O)c2ccc(Oc3cccc(Cl)c3C#N)cc2)ccc1Cl
144 to 156 °C | CC(=Nc1ccc(O)cc1C)c1ccccc1O
125 to 126 °C | O=C1OC2CCC1CC2
83 to 86 °C | CCCCCCCCCCc1nnn(CC(=O)O)n1
130 to 131 °C | COCc1cc(Cl)cc(C(=O)c2nc(OC)cc(OC)n2)c1[N+](=O)[O-]
189 to 192 °C | O=c1c(NCCCN(Cc2cccs2)c2ccccn2)c(NCc2ccncc2)c1=O
240 to 241 °C | CCOC(=O)c1cn(C2CC2)c2cc(F)c(F)c(N)c2c1=O
137 to 145 °C | CN1CCC(c2cccc3ccc(NC(=O)c4ccccc4)cc23)C1 (stereo not drawn)
122 to 124 °C | COc1ccc([N+](=O)[O-])c(N(C)C(=O)OC(C)(C)C)c1
198 to 200 °C | N#Cc1ccc2oc3c(c(=O)c2c1)CCCC3
208 to 210 °C | CCCOc1ccc(-c2ccc3c(c2)C=C(C(=O)Nc2ccc(C(O)c4ccccn4)cc2)CCS3(=O)=O)cc1 (stereo not drawn)
212 to 213 °C | O=C1CCC(c2ccc(Cl)cc2)CN1CNC(=S)NCN1CC(c2ccc(Cl)cc2)CCC1=O (stereo not drawn)
91 to 92.5 °C | O=CC=C[C@@H]1O[C@H]1C#CC#CC#Cc1ccccc1 (relative stereo)
189 to 191 °C | C=Cc1cnc2c(NC(=O)c3c(Cl)cccc3Cl)cccc2c1Cn1ccnc1
207 °C | Nc1ccc(C(=O)C(=O)c2ccc(N)cc2)cc1
52 to 54 °C | CC(C(=O)NCc1ccc(C(C)(C)C)cc1)c1ccc(NS(C)(=O)=O)c(F)c1 (stereo not drawn)
162 to 163 °C | CC(=O)c1ccc(OCC(O)COc2ccc(C#N)cc2)cc1O (stereo not drawn)
63 to 65 °C | O=C(O)[C@H](Cc1ccccc1)NC(=S)Cc1ccccc1
146 to 150 °C | O=C(O)COc1ccc(SSc2ccc(OCC(=O)O)c(Br)c2)cc1Br
93 °C | OCCCSC(=S)Nc1ccccn1
87 to 88 °C | COc1ccccc1OCC1SCCN1C(=O)CCl (stereo not drawn)
116 °C | CC[C@H](C)C(OCc1ccccc1)[C@@H]1[C@H]([N+](=O)[O-])[C@H](c2ccccc2)N(C(=O)CN)[C@]1(C)C(=O)NCCC(=O)O (stereo partly drawn)

melting point | SMILES
188 to 190 °C | CC1(CC2CCCC2)Cc2cc(O)c(Cl)c(Cl)c2C1=O (stereo not drawn)
> 300 °C | Nc1ncc2cc(-c3c(F)cccc3F)c(N)nc2n1
151 to 152 °C | Cc1nnc(Cc2ccc(NC(=O)/C=C/c3cnn(C)c3-c3ccc(F)cc3)cc2)o1
92 °C | O=S(=O)(Cc1ccc(O)cc1)Cc1ccc(O)cc1
162 to 164 °C | CN(C)Cc1cc2ccc(C(=O)NNC(=O)CSCCOc3ccccc3)cc2o1
193 to 195 °C | CCc1nc2c(N)nc3ccccc3c2n1CCCCS(=O)(=O)N(C)C
161 to 162 °C | O=c1cc(N2CCOCC2)cc(-c2ccccc2)o1
155 to 157 °C | COc1ccc2cc(Nc3ccc(OCc4ccccc4)cc3)ccc2c1
116 to 117 °C | CC1CCC(Nc2nccc(Oc3ccc(NC(=O)c4cc(F)cc(N5CCOCC5)c4)c4ccccc34)n2)CC1 (stereo not drawn)
158 to 162 °C | O=C1c2c(Cl)cccc2S(=O)(=O)N1Cn1nnn(-c2ccccc2)c1=S
107 to 109 °C | CCCCc1nc(CO)c(C(=O)ON2C(=O)CCC2=O)n1Cc1ccc(-c2ccccc2C(=O)OC(C)(C)C)cc1
> 300 °C | Oc1nc2cc(Cl)c3nccnc3c2nc1O
268 to 270 °C | CC(C)Oc1ccc(-n2c(-c3ccc(C(=O)O)cc3)c(C(=O)O)c3cc(Oc4ccc(C(F)(F)F)cc4)ccc32)cc1
163 to 169 °C | CN1CCN(c2cc(Cl)cc3c2c(=O)n(CC2CCCCC2)c(=O)n3Cc2ccccc2)CC1
142 to 144 °C | CCCOc1ccc(C(CC(=O)O)N2C(=O)c3ccccc3C2=O)cc1 (stereo not drawn)
145 to 146 °C | Cc1cccc(NC(=O)c2ccccc2C)c1
179 to 182 °C | COc1cc(OC)c(-c2cccs2)cc1/C=C/C(=O)c1cccc(C(=O)O)c1
219 to 220 °C | Cn1c(=O)[nH]c2ccc(-c3cccc(Cl)c3)cc21
124 °C | CC(=O)OC1CSC(Oc2cncc(-c3ccc(C)o3)c2)C(OC(C)=O)C1OC(C)=O (stereo not drawn)
131 to 133 °C | CC12CCC(C1)C1(C)Oc3ccc(C(=O)Oc4ccc(C(=O)OCc5ccccc5)cc4)cc3C21C (stereo not drawn)
219 to 221 °C | N#CC(=Cc1ccc2[nH]ccc2c1)S(=O)(=O)c1ccc([N+](=O)[O-])cc1
99 to 100 °C | CCn1c(COCc2ccccc2)nc(C(C)C)c1Sc1cccc(Cl)c1

melting point | SMILES
159 to 161 °C | Cc1ccc(NC(=O)c2cc(Cl)ccc2NCC2CCN(C3CCCCCC3)CC2)nc1
168 to 169 °C | CCCN(CCC)c1nsc(NC(=O)NC)c1C(N)=O
170 to 172 °C | C[C@H]1N[C@H](c2ccc(Br)cc2)[C@@H]2C(=O)N(Cc3ccccc3)C(=O)[C@@H]21 (racemic)
243 to 245 °C | Cc1ccc(NN2C=c3cc(-c4c(Cl)cccc4Cl)c(=O)n(C)c3=NC2)cc1
163 to 164 °C | COc1ccc(C2=NN(C3CCSCC3)C(=O)[C@H]3CC=CC[C@@H]23)c2c1OC(C)(C)C2 (relative stereo)
218 °C | CCCc1nc(SC)nc(O)c1Cc1ccc(-c2ccccc2C#N)cc1
219 to 220 °C | CC(C)Cn1c(CNC(=O)OC(C)(C)C)c(-c2ccccc2)c2cc(OC(C)(C)C(=O)O)ccc2c1=O
> 310 °C | OCC1C=CC(n2cnc3c(O)ncnc32)O1 (stereo not drawn)
128 to 134 °C | CC1(C)OC(=O)c2c(O)cccc21
174 to 175 °C | COC(=O)c1ccc(Cc2cccc3ccc(C(=O)NCC(C)C)cc23)c(OC)c1
254 to 256 °C | O=C(O)c1csc(Nc2ccc(Cl)c(C(F)(F)F)c2)n1
185 °C | CC(CCn1c(=O)[nH]c2ccccc21)N1CCC(CC(=O)c2ccc(F)cc2)CC1 (stereo not drawn)
79 to 82 °C | ClC1c2ccccc2CSc2ccccc21 (stereo not drawn)
106 to 108 °C | CCCCCS(=O)(=O)NC(=O)/C=C/c1ccc(OCCO[Si](C(C)C)(C(C)C)C(C)C)cc1Oc1ncc(C(F)(F)F)cc1Cl
59.1 °C | Cc1cc(C(C)(C)C)cc(C)c1S(F)(F)F
179 to 187 °C | CCCCc1nc2ccccn2c(=O)c1-c1ccc(NC(=O)[C@@H]2CCCN2C(=O)OC(C)(C)C)cc1
100 to 103 °C | C#CCOC(=O)Cn1cccc1-c1nc(-c2ccc(OC)cc2)c(-c2ccc(OC)cc2)s1
157 to 159 °C | CC(C)C[C@@H](CO)NC(=O)[C@H](Cc1c[nH]cn1)NC(=O)[C@H](Cc1cccc2ccccc12)NC(=O)OCc1ccccc1 (Cbz-[1Nal]-His-[Leu(ol)])
157 to 158 °C | CCOC(=O)C1(N)C=CNN1c1cc(Cl)cc(Cl)c1 (stereo not drawn)
134 °C | CC(C)(C)OC(=O)NN=C(c1ccccc1)c1ccncc1
138 to 141 °C | O=C(O)c1ccc(-c2ccc(F)cc2)cc1

SMILES | melting point
CC1=CC(=O)CC2CCC3C4C(C#N)CC(=O)C4(C)CCC3C12C (stereo not drawn) | 193 °C
CCCCCCC(C)(C)c1cc(O)c2c(c1)OC(C)(C)CC2C(=O)O (stereo not drawn) | 147 to 148 °C
Cc1cccc(NC(=O)NC2N=C(c3ccccc3F)c3ccccc3N(Cc3ccsc3)C2=O)c1 (racemic) | 221 to 223 °C
